According to patent US12616196B2, “Long protection mosquito repellent ointment” (MAIA AFRICA SAS, priority 2019, dated 2026):

What was measured:
mosquitoes = experiment: Field human landing catches, hourly mosquito biting rate; format: in vivo; settings: with 95% CI
Procedure: (§1) The protection time provided by ointment No. 9 of Example 1 has been measured according to the “Guidelines for efficacy testing of mosquito repellents for human skin” published by the World Health Organization in 2009 (noted hereafter “WHO Guidelines, 2009”). These guidelines describe how human landing catches must be performed on volunteers. The effectiveness of ointment No. 9 was evaluated and compared to a 20% ethanol solution of DEET (N, N-Diethyl-3-methylbenzamide), being the positive control, and an ethanol solution being the negative control.
(§2) Briefly, the study was carried out in real conditions at the Goden village (12°25′N, 1°20′W), a rural village in the locality of Gampela, 25 km north-east of Ouagadougou, the capital city of Burkina Faso. Goden is in the Sudanian Savanna with approximately 800 inhabitants mainly belonging to the Mossi ethnic group, mostly devoted to agriculture and rearing few animals such as dogs, pigs and others. Goden is known for its high density of malaria vectors due to its proximity to the Massiri river. This study was carried out during the high malaria transmission period, when the mosquito density was the highest A preliminary assessment of the collection site was carried out by undertaking captures on human volunteers before the tests themselves. […]

Anopheles funestus = experiment: Field human landing catches, Goden village; format: in vivo; settings: total catch during the tests, collection 6 pm to 6 am
Procedure: as §1, §2

Other Anopheles = experiment: Field human landing catches, Goden village; format: in vivo; settings: total catch during the tests, collection 6 pm to 6 am
Procedure: as §1, §2

Ae. aegypti (Bagamoyo) = experiment: Semi-field system (SFS) recapture of released mosquitoes on treated lower limbs; format: in vivo, Aedes aegypti
Procedure: (§3) The study was conducted under ambient condition in the semi-field system (SFS) located in Bagamoyo district at the Ifakara Health Institute at Bagamoyo branch in Tanzania. Bagamoyo is located on the coast region of the Indian Ocean between latitudes 6° and 8′ South and between longitudes 30° and 37′ East. The district experience annual rainfall ranging between 800 mm and 1000 mm, temperature ranging between 22° C. and 33° C., and mean relative humidity of 73%.
(§4) Three laboratory-reared mosquito strains, aged 6 days old, sugar starved for 8 hours, nulliparous females, reactive to human odor on the day of the experiment, have been used for this experiment. Mosquito strains used were: (i) the pyrethroid insecticide resistant (20% mortality) An. arabiensis (Kingani, (ii) fully pyrethroid susceptible An. gambiae s.s. (Kisumu) and (iii) Ae. aegypti (Bagamoyo). The vector control product-testing unit of IHI supplied all mosquitoes used in the experiments.
The mosquitoes were reared in the insectary following MR4 guideline (MR4. Methods in Anopheles Research 2016; 2015 Edition). Adults were kept inside cages measuring 30 cm×30 cm×30 cm. Only hyperactive mosquitoes were selected at least 8 hours before the experiment. […] About 30 minutes before the experiment, mosquitoes were transferred to the SFS to acclimatize the environmental conditions. […]
(§5) Volunteers wore shorts, closed shoes and bug jacket to ensure mosquitoes had access to the lower limbs only. […] After application, an empty plastic cups were weighed to determine the quantity of repellent left in the cup. […]
(§6) During the last 9 days, we used same volunteers, compartments and rotation schedule. […] Volunteers recorded a time the first mosquito of each species landed on the limb and the recaptured mosquito was placed in a paper cup labelled with volunteers unique identification code, time of collection, position and treatment code. […]

[1] = test system: An. arabiensis (Kingani), An. gambiae s.s. (Kisumu), Ae. aegypti (Bagamoyo); experiment: Semi-field system (SFS), all species tested; format: in vivo, Anopheles and Aedes mosquitoes
Procedure: as §3
Three laboratory-reared mosquito strains, aged 6 days old, sugar starved for 8 hours, nulliparous females, reactive to human odor on the day of the experiment, have been used for this experiment. […]
as §5, §6

Anopheles gambiae s.l. = experiment: Field human landing catches on treated lower legs, Goden village (WHO Guidelines 2009); format: in vivo; settings: for Median CPT (complete protection time): Kaplan-Meier
Procedure: as §1
Briefly, the study was carried out in real conditions at the Goden village (12°25′N, 1°20′W), a rural village in the locality of Gampela, 25 km north-east of Ouagadougou, the capital city of Burkina Faso. Goden is in the Sudanian Savanna with approximately 800 inhabitants mainly belonging to the Mossi ethnic group, mostly devoted to agriculture and rearing few animals such as dogs, pigs and others. Goden is known for its high density of malaria vectors due to its proximity to the Massiri river. This study was carried out during the high malaria transmission period, when the mosquito density was the highest A preliminary assessment of the collection site was carried out by undertaking captures on human volunteers before the tests themselves.
A total of twenty volunteers have been recruited from the Goden village and have been trained for the nocturnal collection of mosquitoes on human bait using mouth aspirator and flash torch known as Human Landing Catches (HCL). The age of the volunteers ranged from 18 to 50 years old. After receiving explanation of the aims, benefits and risks of the study, they signed a written informed consent. The composition of the ointment was not disclosed to the volunteers. Volunteers were instructed not to use any fragranced soap or perfume, tobacco or alcohol 12 hours before the start and throughout the experiments. Before applying treatments, the lower leg of volunteers was washed with neutral soap, rinsed with 70% of ethanol solution and naturally dried. Once their legs treated volunteers were also asked to avoid rubbing, touching or wetting the repellent-treated area.
Three treatments have been carried out in the study: • (i) one negative control (ethanol 100%), • (ii) two treatments of 20% DEET diluted in ethanol 100% of technical quality used as a positive control, since this repellent is considered as the reference, • (iii) two treatments of ointment No. 9.
The products were applied to the bare leg of the volunteers and the areas of application were exposed to mosquito bites in the field. Volunteers applied to their exposed leg: Ointment No. 9 at a dosage of 2 mg/cm^2, and 20% DEET in ethanol for the positive control at a dosage of 1 ml per 600 cm^2.
To establish the amount of repellent required for application in the experiments, the surface area of the leg of each volunteer were determined by first measuring the circumferences expressed in centimeter (cm) just below the knee, and above the ankle, multiplied by the length of the lower leg, measured from the knee to the ankle. The surface area (in cm^2) of skin was calculated according to formula (1) below: Area=½(Ck+Ca)Dka, (1) wherein Ck is the circumference below the knee in cm, Ca is the circumference above the ankle in centimeter, and Dka is the distance in centimeter between Ca and Ck. The amount needed for each volunteer was then determined depending on their leg length. In addition, the quantity of product left in bottles was weighed using a precision weighing balance (KERN & SOHN GmbH) to determine the amount applied by each volunteer. Overall, the average amount applied was 2.4±0.2 g per 1189±79.2 cm^2 and per volunteer's lower leg, leading to 2 mg/cm^2 of Ointment No. 9 and […] of a 20% DEET solution.
Volunteers were divided into five groups of four volunteers. All the members of a group received the same treatment at the same time. […]

Culicine = experiment: Field human landing catches, Goden village; format: in vivo, Culicine (Aedes); settings: total catch during the tests, collection 6 pm to 6 am
Procedure: as §1, §2

[2] = test system: An. gambiae s.s. (Kisumu); experiment: Semi-field system (SFS) recapture of released mosquitoes on treated lower limbs; format: in vivo
Procedure: as §3, §4
(§7) The mosquitoes were reared in the insectary following MR4 guideline (MR4. Methods in Anopheles Research 2016; 2015 Edition). Adults were kept inside cages measuring 30 cm×30 cm×30 cm. Only hyperactive mosquitoes were selected at least 8 hours before the experiment. […] About 30 minutes before the experiment, mosquitoes were transferred to the SFS to acclimatize the environmental conditions. The SFS offered the following advantages; 1) volunteers were exposed to laboratory-reared mosquitoes only, 2) experiments were run using a known number of mosquitoes throughout the experiments; 3) mosquitoes used were of known age (6 days), physiological status and avidity. These features improve data quality and less results variability between days and volunteers.
(§8) Three treatments have been tested: (i) Ethanol 100% as a negative control, (ii) 20% DEET diluted in ethanol 100% as a positive control, and (iii) ointment No. 9.
(§9) Volunteers wore shorts, closed shoes and bug jacket to ensure mosquitoes had access to the lower limbs only. Volunteers applied 20% DEET and ointment No. 9 at an average rate of 2 mg/cm^2 of the repellent to the lower limbs using latex glove to minimize absorption onto volunteer's hand. After application, an empty plastic cups were weighed to determine the quantity of repellent left in the cup. The composition of the ointment was not disclosed to the volunteers.
(§10) The study was divided into two experiments: one for Anopheles mosquitoes conducted in the late evening and the other for Ae. aegypti mosquitoes conducted early in the morning. The experiment for Anopheles started at 17:55 and that for Ae. aegypti at 06:00 hours.
(§11) The experiments were conducted for a total of 18 days. During the first 9 days 100 mosquitoes (50 per species) were released in each compartment starting at 18:00 hours for Anopheles species and at 06:00 hours for Ae. aegypti. After the release, the number of mosquitoes recaptured by volunteers who applied 20% DEET and ointment No. 9 was insignificant up to 6 hours of recapture period. This warranted to extend the recapture period to 12 hours 9 last days.
(§12) During the last 9 days, we used same volunteers, compartments and rotation schedule. Mosquitoes released were 100 per species and volunteers recaptured mosquitoes landing on their lower limbs using a mouth aspirator up to 12 hours of recapture period. Volunteers recorded a time the first mosquito of each species landed on the limb and the recaptured mosquito was placed in a paper cup labelled with volunteers unique identification code, time of collection, position and treatment code. The volunteer kept collecting subsequent mosquitoes up to 12 hours with cups changed after every hour.
(§13) At the end of recapture time, mosquitoes were killed by putting in the refrigerator for about 30 minutes and then sorted to species level. If the mosquito recaptured in the control was below 50 percent, the experiment was considered invalid, data discarded and the experiment repeated. […]

An. arabiensis (Kingani) = experiment: as above; format: in vivo
Procedure: as §3, §4, §7, §8, §9, §10, §11, §12, §13

Structure (SMILES): CCN(CC)C(=O)c1cccc(C)c1 [20% DEET, N,N-diethyl-3-méthylbenzamide]
- average mosquito bites received per person per hour (mosquitoes): 1.01 (95%: 0.76-1.33) per person per hour
- mosquitoes caught by treatment (Anopheles funestus): 1
- mosquitoes caught by treatment (Other Anopheles): 1
- Percentage protection (protective efficacy) (Ae. aegypti (Bagamoyo); 12-hour recapture time): 93.1%
- Percentage recapture (Ae. aegypti (Bagamoyo); 12-hour recapture time): 4.8%
- Average CRT (average complete protection time, CPT) (Ae. aegypti (Bagamoyo); up to 12 hours recapture): 436.9 min
- protective efficacy ([1]; 6-hour recapture time, all species tested): 100%
- number of mosquitoes recaptured ([1]; up to 6 hours of recapture period): insignificant
- percentage of repellency (Anopheles gambiae s.l.; after 3 h (10 hours after application)): under 80%
- Median CPT (complete protection time) (Anopheles gambiae s.l.; indoor and outdoor together): 480 min
- Median CPT (complete protection time) (Anopheles gambiae s.l.; indoor): 480 min
- Median CPT (complete protection time) (Anopheles gambiae s.l.; outdoor): 480 min
- mosquitoes caught by treatment (Anopheles gambiae s.l.; total catch during the tests, collection 6 pm to 6 am): 686
- increase of protection time compared to Ethanol (Anopheles gambiae s.l.; versus negative control Ethanol): four-fold
- mosquitoes caught by treatment (Culicine): 7
- Percentage protection (protective efficacy) ([2]; 12-hour recapture time): 96.8%
- Percentage recapture ([2]; 12-hour recapture time): 2.5%
- Average CRT (average complete protection time, CPT) ([2]; up to 12 hours recapture): 575 min
- Percentage protection (protective efficacy) (An. arabiensis (Kingani); 12-hour recapture time): 97.2%
- Percentage recapture (An. arabiensis (Kingani); 12-hour recapture time): 2.7%
- Average CRT (average complete protection time, CPT) (An. arabiensis (Kingani); up to 12 hours recapture): 580.9 min
